From patent publication US12043600B2, “Microbiocidal compounds” (SYNGENTA CROP PROTECTION AG, priority 2018, dated 2024)

What was measured:
[1] = test system: Puccinia recondita f. sp. tritici; test: Puccinia recondita f. sp. tritici/Wheat/Leaf Disc Curative (Brown Rust); assay type: in vivo; conditions: foliar, wheat leaf disc curative, compared to untreated control
Method in brief: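 Formulated compound, diluted in water, is applied to inoculated wheat cv. Kanzler leaf segments on agar one day post-inoculation (pre-incubation dark, 19° C, 75% rh). After 6-8 days at 19° C, 75% rh and 12 h/12 h light, activity is rated as percent disease control relative to untreated segments.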

[2] = test system: Monographella nivalis (Microdochium nivale); test: Monographella nivalis (Microdochium nivale)/Liquid Culture (Foot Rot Cereals); assay type: cell-based; conditions: liquid culture, compared to untreated control
Method in brief: (§1)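 Growth inhibition read in liquid culture: spores from frozen stocks, suspended in potato dextrose broth, meet DMSO-dissolved compound placed beforehand in the plate.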

[3] = test system: Glomerella lagenarium (Colletotrichum lagenarium); test: Glomerella lagenarium (Colletotrichum lagenarium)/Liquid Culture (Anthracnose); assay type: cell-based; conditions: Colletotrichum orbiculare, liquid culture, compared to untreated control
Phytophthora infestans = test: whole plant or invertebrate; assay type: in vivo; conditions: in Solanum lycopersicum, foliar, read-out: control of Phytophthora infestans
[4] = test system: Mycosphaerella arachidis (Cercospora arachidicola); test: Mycosphaerella arachidis (Cercospora arachidicola)/Liquid Culture (Early Leaf Spot); assay type: cell-based; conditions: liquid culture, compared to untreated control
Method in brief: as §1

[5] = test system: Magnaporthe grisea (Pyricularia oryzae); test: whole plant or invertebrate; assay type: in vivo; conditions: foliar, read-out: control of Magnaporthe grisea
[6] = test system: Thanatephorus cucumeris (Rhizoctonia solani); test: Thanatephorus cucumeris (Rhizoctonia solani)/Liquid Culture (Foot Rot, Damping-Off); assay type: cell-based; conditions: liquid culture, compared to untreated control
Description: Mycelia fragments of a newly grown liquid culture of the fungus are directly mixed into nutrient broth (PDB potato dextrose broth). After placing a (DMSO) solution of the test compounds into a microtiter plate (96-well format), the nutrient broth containing the fungal material is added.

[7] = test system: Puccinia recondita f. sp. tritici; test: Puccinia recondita f. sp. tritici/Wheat/Leaf Disc Preventative (Brown Rust); assay type: in vivo; conditions: foliar, 200 ppm, wheat leaf disc preventative, compared to untreated control, read-out: control of Puccinia recondita f. sp. tritici
[8] = test system: Mycosphaerella graminicola (Septoria tritici); test: Mycosphaerella graminicola (Septoria tritici)/Liquid Culture (Septoria Blotch); assay type: cell-based; conditions: Zymoseptoria tritici; 20 ppm; liquid culture; compared to untreated control
Method in brief: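 Results given as % disease control: test compound in DMSO was placed in wells first, then potato dextrose broth carrying cryostored fungal conidia was added.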

[9] = test system: Blumeria graminis f. sp. tritici (Erysiphe graminis f. sp. tritici); test: Blumeria graminis f. sp. tritici/Wheat/Leaf Disc Preventative (Powdery Mildew on Wheat); assay type: in vivo; conditions: foliar, wheat leaf disc preventative, compared to untreated control
Method in brief: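 Preventative leaf-disc test: percent disease control versus untreated leaf segments read 6-8 days post-application. Compound spray applied to wheat cv. Kanzler segments on agar one day before shaking infected plants over them; incubation at 20° C and 60% rh, 24 h darkness then 12 h light/12 h dark cycles.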

[10] = test system: Botryotinia fuckeliana (Botrytis cinerea); test: Botryotinia fuckeliana (Botrytis cinerea)/Liquid Culture (Gray Mould); assay type: cell-based; conditions: liquid culture, compared to untreated control
Description: Conidia of the fungus from cryogenic storage are directly mixed into nutrient broth (Vogels broth). After placing a (DMSO) solution of test compound into a microtiter plate (96-well format), the nutrient broth containing the fungal spores is added.

Plasmopara viticola = test: whole plant or invertebrate; assay type: in vivo; conditions: foliar, read-out: control of Plasmopara viticola
Phakopsora pachyrhizi = test: Phakopsora pachyrhizi/Soybean/Preventative (Soybean Rust); assay type: in vivo; conditions: foliar, 288 h, 200 ppm, soybean leaf disc preventative, compared to untreated control, read-out: control of Phakopsora pachyrhizi
[11] = test system: Phaeosphaeria nodorum (Septoria nodorum); test: Phaeosphaeria nodorum (Septoria nodorum)/Wheat/Leaf Disc Preventative (Glume Blotch); assay type: in vivo; conditions: Parastagonospora nodorum, foliar, wheat leaf disc preventative, compared to untreated control
Method in brief: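 Preventative test: compound spray first, then spore inoculation after 2 days on cv. Kanzler wheat leaf segments. Incubation in a climate cabinet at 20 °C and 75% rh under a 12 h light/12 h dark cycle. Activity rated as % control relative to untreated discs at 5–7 days post-application.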

Row | SMILES | pest or weed control at 200 ppm [1] [%] | inhibition of growth at 20 ppm [2] [%] | inhibition of growth at 20 ppm [3] [%] | pest or weed control at 200 ppm (Phytophthora infestans) [%] | inhibition of growth at 20 ppm [4] [%] | pest or weed control at 200 ppm [5] [%] | inhibition of growth at 20 ppm [6] [%] | pest or weed control at 200 ppm [7] [%] | inhibition of growth at 20 ppm [8] [%] | pest or weed control at 200 ppm [9] [%] | inhibition of growth at 20 ppm [10] [%] | pest or weed control at 200 ppm (Plasmopara viticola) [%] | pest or weed control at 200 ppm (Phakopsora pachyrhizi) [%] | pest or weed control at 200 ppm [11] [%]
1 | CO/C=C(\Oc1cc(C)cc(-n2ccc(C(C)C)n2)c1)C(=O)OC [Compound E-35, methyl (Z)-2-[3-(3-isopropylpyrazol-1-yl)-5-methyl-phenoxy]-3-methoxy-prop-2-enoate] | ≥ 80 | ≥ 80 | ≥ 80 | ≥ 80 | ≥ 80 | ≥ 80 | ≥ 80 | ≥ 80 | ≥ 80 | ≥ 80 | ≥ 80 | ≥ 80 | ≥ 50 | 
2 | C#Cc1cnn(-c2ccc(C)c(O/C(=C\OC)C(=O)OC)c2)c1 [Compound E-48, methyl (Z)-2-[5-(4-ethynylpyrazol-1-yl)-2-methyl-phenoxy]-3-methoxy-prop-2-enoate] | ≥ 80 | ≥ 80 | ≥ 80 | ≥ 80 | ≥ 80 |  | ≥ 80 | ≥ 80 | ≥ 80 | ≥ 80 | ≥ 80 | ≥ 80 |  | ≥ 80
3 | CO/C=C(\Oc1cc(-n2cc(C3CC3)cn2)ccc1C)C(=O)OC [Compound E-50, methyl (Z)-2-[5-(4-cyclopropylpyrazol-1-yl)-2-methyl-phenoxy]-3-methoxy-prop-2-enoate] |  | ≥ 80 | ≥ 80 | ≥ 80 | ≥ 80 | ≥ 80 | ≥ 80 | ≥ 80 | ≥ 80 | ≥ 80 | ≥ 80 | ≥ 80 | ≥ 50 | ≥ 80
4 | CCOc1cnn(-c2ccc(C)c(O/C(=C\OC)C(=O)OC)c2)c1 [Compound E-52, methyl (Z)-2-[5-(4-ethoxypyrazol-1-yl)-2-methyl-phenoxy]-3-methoxy-prop-2-enoate] |  | ≥ 80 | ≥ 80 | ≥ 80 | ≥ 80 | ≥ 80 | ≥ 80 | ≥ 80 | ≥ 80 |  | ≥ 80 | ≥ 80 | ≥ 50 | 
5 | CO/C=C(\Oc1cc(-n2cc(SC(C)C)cn2)ccc1C)C(=O)OC [Compound E-53, methyl (Z)-2-[5-(4-isopropylsulfanylpyrazol-1-yl)-2-methyl-phenoxy]-3-methoxy-prop-2-enoate] |  | ≥ 80 | ≥ 80 | ≥ 80 | ≥ 80 | ≥ 80 | ≥ 80 | ≥ 80 | ≥ 80 |  | ≥ 80 | ≥ 80 |  | ≥ 80
